Laboratory results from US9624214B2, “Amino-substituted imidazo[1,2-a]pyridinecarboxamides and their use” (BAYER PHARMA AKTIENGESELLSCHAFT, priority 2012, dated 2017).
Counter-ions that a name gives are not always drawn.

Each compound was assayed against T1, recombinant guanylate cyclase reporter cell line (Rattus norvegicus, UniProt P19686+P20595) (assay: B-2. Action on recombinant guanylate cyclase reporter cell line). Details: MEC = minimal effective concentration; in some cases mean values from individual determinations.
T1 construct: expressed in transfected cells
T1 sequence (P20595 1-619): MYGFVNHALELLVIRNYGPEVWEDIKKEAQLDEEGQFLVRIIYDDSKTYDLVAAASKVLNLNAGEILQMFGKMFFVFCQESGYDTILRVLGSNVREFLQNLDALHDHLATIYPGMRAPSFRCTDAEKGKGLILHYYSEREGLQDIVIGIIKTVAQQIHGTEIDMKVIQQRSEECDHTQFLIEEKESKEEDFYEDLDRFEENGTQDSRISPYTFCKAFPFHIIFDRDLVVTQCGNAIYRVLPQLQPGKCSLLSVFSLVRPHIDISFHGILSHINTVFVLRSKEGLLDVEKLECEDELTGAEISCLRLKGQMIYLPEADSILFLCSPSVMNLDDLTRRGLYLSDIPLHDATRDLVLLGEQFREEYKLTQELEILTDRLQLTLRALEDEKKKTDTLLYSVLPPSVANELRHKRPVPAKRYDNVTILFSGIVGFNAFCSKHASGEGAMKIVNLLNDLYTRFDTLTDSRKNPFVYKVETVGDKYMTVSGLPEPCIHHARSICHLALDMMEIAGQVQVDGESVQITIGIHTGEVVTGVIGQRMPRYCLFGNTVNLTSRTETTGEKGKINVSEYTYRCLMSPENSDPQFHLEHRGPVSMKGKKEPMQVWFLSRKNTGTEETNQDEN
T1 sequence (P19686 1-690): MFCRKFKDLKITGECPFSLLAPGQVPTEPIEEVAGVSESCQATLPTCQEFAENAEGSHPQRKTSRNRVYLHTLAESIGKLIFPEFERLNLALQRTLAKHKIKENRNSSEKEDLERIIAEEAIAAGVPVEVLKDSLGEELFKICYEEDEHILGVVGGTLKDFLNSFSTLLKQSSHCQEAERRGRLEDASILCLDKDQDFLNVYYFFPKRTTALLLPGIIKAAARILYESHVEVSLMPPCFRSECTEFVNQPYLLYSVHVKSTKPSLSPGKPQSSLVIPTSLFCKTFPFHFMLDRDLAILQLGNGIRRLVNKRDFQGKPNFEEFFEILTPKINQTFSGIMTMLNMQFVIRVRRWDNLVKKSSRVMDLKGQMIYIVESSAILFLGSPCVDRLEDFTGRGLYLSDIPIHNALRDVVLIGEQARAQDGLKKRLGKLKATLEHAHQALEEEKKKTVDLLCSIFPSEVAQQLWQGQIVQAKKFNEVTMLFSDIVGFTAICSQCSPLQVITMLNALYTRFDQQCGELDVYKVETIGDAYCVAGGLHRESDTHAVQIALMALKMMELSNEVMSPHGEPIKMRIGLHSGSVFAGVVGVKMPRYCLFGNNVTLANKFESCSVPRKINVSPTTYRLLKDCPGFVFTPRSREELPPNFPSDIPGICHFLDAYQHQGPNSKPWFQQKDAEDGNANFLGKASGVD
Assay type: cell-based
Procedure, shortened: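 MEC values, meaning the lowest concentration producing a detectable response, were taken from a recombinant cyclase reporter cell assay. Where repeated, individual determinations were averaged.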
`Cc1cc(OCc2c(F)ccc(F)c2F)c2nc(C)c(C(=O)NCC(C)(N)CCC(F)(F)F)n2c1` (single isomer, unassigned; enantiomer a) [Example 410, ent-N-(2-amino-5,5,5-trifluoro-2-methylpentyl)-2,6-dimethyl-8-[(2,3,6-trifluorobenzyl)oxy]imidazo[1,2-a]pyridine-3-carboxamide (Enantiomer A)] was tested, and the MEC was 0.10 µM. `Cc1nc2c(OCc3c(F)cccc3F)cccn2c1C(=O)NC(CN)CC(F)(F)F` (single isomer, unassigned; enantiomer b) [Example 3, ent-N-(1-Amino-4,4,4-trifluorobutan-2-yl)-8-[(2,6-difluorobenzyl)oxy]-2-methylimidazo[1,2-a]-pyridine-3-carboxamide (Enantiomer B)] gave an MEC of 0.30 µM. In the case of `Cc1nc2c(OCc3c(F)cccc3F)cccn2c1C(=O)NC(CN)CCCC(F)(F)F` (single isomer, unassigned; enantiomer b) [Example 6, ent-N-(1-Amino-6,6,6-trifluorohexan-2-yl)-8-[(2,6-difluorobenzyl)oxy]-2-methylimidazo[1,2-a]-pyridine-3-carboxamide (Enantiomer B)], the MEC is reported as 0.23 µM. `Cc1nc2c(OCc3c(F)cccc3F)cccn2c1C(=O)NC(CN)c1ccc(F)cc1` (single isomer, unassigned; enantiomer b) [Example 10, ent-N-[2-Amino-1-(4-fluorophenyl)ethyl]-8-[(2,6-difluorobenzyl)oxy]-2-methylimidazo[1,2-a]-pyridine-3-carboxamide (Enantiomer B)] gave an MEC of 0.30 µM. In the case of `Cc1nc2c(OCc3c(F)cccc3F)cccn2c1C(=O)NC(CN)c1ccc(Cl)cc1` (single isomer, unassigned; enantiomer b) [Example 15, ent-N-[2-Amino-1-(4-chlorophenyl)ethyl]-8-[(2,6-difluorobenzyl)oxy]-2-methylimidazo[1,2-a]-pyridine-3-carboxamide (Enantiomer B)], the MEC is reported as 0.53 µM. `Cc1nc2c(OCc3c(F)cccc3F)cccn2c1C(=O)NC(CN)c1ccccc1` (single isomer, unassigned; enantiomer b) [Example 18, ent-N-(2-Amino-1-phenylethyl)-8-[(2,6-difluorobenzyl)oxy]-2-methylimidazo[1,2-a]pyridine-3-carboxamide (Enantiomer B)] gave an MEC of 0.55 µM. Work on `Cc1nc2c(OCc3c(F)cccc3F)cccn2c1C(=O)NC(C)CN` (single isomer, unassigned; enantiomer b) [Example 20, ent-N-(1-Aminopropan-2-yl)-8-[(2,6-difluorobenzyl)oxy]-2-methylimidazo[1,2-a]pyridine-3-carboxamide (Enantiomer B)] yielded an MEC of 1.00 µM. `Cc1nc2c(OCc3c(F)cccc3F)cc(Cl)cn2c1C(=O)NCC(C)N` (single isomer, unassigned; enantiomer b) [Example 30, ent-N-(2-Aminopropyl)-6-chloro-8-[(2,6-difluorobenzyl)oxy]-2-methylimidazo[1,2-a]pyridine-3-carboxamide (Enantiomer B)] gave an MEC of 0.30 µM. For `COCC(N)CNC(=O)c1c(C)nc2c(OCc3c(F)cccc3F)cccn12` (single isomer, unassigned; enantiomer b) [Example 248, ent-N-(2-Amino-3-methoxypropyl)-8-[(2,6-difluorobenzyl)oxy]-2-methylimidazo[1,2-a]pyridine-3-carboxamide (Enantiomer B)], the MEC was 1.00 µM. `Cc1cc(OC(C)c2c(F)cccc2F)c2nc(C)c(C(=O)NCC(C)(C)N)n2c1` (single isomer, unassigned; enantiomer b) [Example 256, ent-N-(2-Amino-2-methylpropyl)-8-[1-(2,6-difluorophenyl)ethoxy]-2,6-dimethylimidazo[1,2-a]-pyridine-3-carboxamide (Enantiomer B)] gave an MEC of 3.00 µM. Work on `Cc1cc(OCc2c(F)cccc2F)c2nc(C)c(C(=O)NCC(C)(N)C3CC3)n2c1` (single isomer, unassigned; enantiomer b) [Example 261, ent-N-(2-Amino-2-cyclopropylpropyl)-8-[(2,6-difluorobenzyl)oxy]-2,6-dimethylimidazo[1,2-a]-pyridine-3-carboxamide (Enantiomer B)] yielded an MEC of 0.10 µM. `Cc1nc2c(OCc3c(F)cccc3F)cccn2c1C(=O)NCC(C)(N)CCOCc1ccccc1` (single isomer, unassigned; enantiomer b) [Example 267, ent-N-[2-Amino-4-(benzyloxy)-2-methylbutyl]-8-[(2,6-difluorobenzyl)oxy]-2-methylimidazo[1,2-a]pyridine-3-carboxamide (Enantiomer B)] showed an MEC of 0.10 µM. `Cc1cc(OCc2c(F)cccc2F)c2nc(C)c(C(=O)NCC(C)(N)CO)n2c1` (single isomer, unassigned; enantiomer b) [Example 269, ent-N-(2-Amino-3-hydroxy-2-methylpropyl)-8-[(2,6-difluorobenzyl)oxy]-2,6-dimethylimidazo-[1,2-a]pyridine-3-carboxamide (Enantiomer B)] showed an MEC of 0.65 µM. With `CCC(C)(N)CNC(=O)c1c(C)nc2c(OCc3c(F)ccc(F)c3F)cc(C)cn12` (single isomer, unassigned; enantiomer b) [Example 275, ent-N-(2-Amino-2-methylbutyl)-2,6-dimethyl-8-[(2,3,6-trifluorobenzyl)oxy]imidazo[1,2-a]-pyridine-3-carboxamide (Enantiomer B)] the MEC was 0.10 µM. `CCCC(C)(N)CNC(=O)c1c(C)nc2c(OCc3c(F)cccc3F)cc(OC)cn12` (single isomer, unassigned; enantiomer b) [Example 278, ent-N-(2-amino-2-methylpentyl)-8-[(2,6-difluorobenzyl)oxy]-6-methoxy-2-methylimidazo[1,2-a]pyridine-3-carboxamide (Enantiomer B)] showed an MEC of 0.3 µM. Compound `CCCC(C)(N)CNC(=O)c1c(C)nc2c(OCc3c(F)cccc3F)cc(N3CCOCC3)cn12` (single isomer, unassigned; enantiomer b) [Example 280, ent-N-(2-amino-2-methylpentyl)-8-[(2,6-difluorobenzyl)oxy]-2-methyl-6-(morpholin-4-yl)imidazo[1,2-a]pyridine-3-carboxamide (Enantiomer B)] has an MEC of 0.65 µM. With `CCCC(C)(N)CNC(=O)c1c(C)nc2c(OCc3c(F)cccc3F)cc(C3CC3)cn12` (single isomer, unassigned; enantiomer b) [Example 281, ent-N-(2-amino-2-methylpentyl)-6-cyclopropyl-8-[(2,6-difluorobenzyl)oxy]-2-methylimidazo[1,2-a]pyridine-3-carboxamide (Enantiomer B)] the MEC was 0.3 µM. `Cc1cc(OCc2c(F)cccc2F)c2nc(C)c(C(=O)NCC(C)(N)CF)n2c1` (single isomer, unassigned; enantiomer b) [Example 284, ent-N-(2-amino-3-fluoro-2-methylpropyl)-8-[(2,6-difluorobenzyl)oxy]-2,6-dimethylimidazo[1,2-a]pyridine-3-carboxamide (Enantiomer B)] was tested, and the MEC was 0.1 µM. `Cc1cc(OCc2c(F)ccc(F)c2F)c2nc(C)c(C(=O)NCC(C)(N)CF)n2c1` (single isomer, unassigned; enantiomer b) [Example 286, ent-N-(2-amino-3-fluoro-2-methylpropyl)-2,6-dimethyl-8-[(2,3,6-trifluorobenzyl)oxy]imidazo[1,2-a]pyridine-3-carboxamide (Enantiomer B)] gave an MEC of 0.1 µM. Compound `CCCC(C)(N)CNC(=O)c1c(C)nc2c(OCc3c(F)cccc3F)cc(C(F)F)cn12` (single isomer, unassigned; enantiomer b) [Example 289, ent-N-(2-amino-2-methylpentyl)-8-[(2,6-difluorobenzyl)oxy]-6-(difluoromethyl)-2-methylimidazo[1,2-a]pyridine-3-carboxamide Formate (Enantiomer B)] has an MEC of 0.3 µM. `CCCC(C)(N)CNC(=O)c1c(C)nc2c(OCc3c(F)cccc3F)cc(C(F)F)cn12` (single isomer, unassigned; enantiomer b) [Example 290, ent-N-(2-amino-2-methylpentyl)-8-[(2,6-difluorobenzyl)oxy]-6-(difluoromethyl)-2-methylimidazo[1,2-a]pyridine-3-carboxamide (Enantiomer B)] showed an MEC of 0.3 µM.
